Measurements published in article PMC10046037, “GABRG2 Variants Associated with Febrile Seizures” (Biomolecules, 2023).

Columns and labels:
[1] = molecular target: T1, α1β3γ2 GABAA receptor, γ2Y468C variant (Homo sapiens, UniProt P14867+P18507+P28472, Y468C); assay: Automated patch clamp of GABA-elicited currents (SyncroPatch 384PE), γ2Y468C; assay type: cell-based; conditions: mean
T1 construct: expressed in transfected cells; host or cells: HEK293T
T1 sequence (P14867 28-456): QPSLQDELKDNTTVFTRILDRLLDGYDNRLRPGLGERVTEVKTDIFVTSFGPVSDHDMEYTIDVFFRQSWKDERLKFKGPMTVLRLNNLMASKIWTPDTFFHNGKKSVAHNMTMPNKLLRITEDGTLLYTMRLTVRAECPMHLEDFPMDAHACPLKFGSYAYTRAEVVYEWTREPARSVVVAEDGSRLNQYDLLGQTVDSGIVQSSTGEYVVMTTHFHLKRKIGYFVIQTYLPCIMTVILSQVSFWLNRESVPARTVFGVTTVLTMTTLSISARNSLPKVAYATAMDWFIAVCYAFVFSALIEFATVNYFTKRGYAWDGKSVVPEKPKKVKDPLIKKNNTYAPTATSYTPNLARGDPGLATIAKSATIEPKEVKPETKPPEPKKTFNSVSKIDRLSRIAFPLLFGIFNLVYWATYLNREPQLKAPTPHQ
T1 sequence (P28472 26-473 isoform P28472-2): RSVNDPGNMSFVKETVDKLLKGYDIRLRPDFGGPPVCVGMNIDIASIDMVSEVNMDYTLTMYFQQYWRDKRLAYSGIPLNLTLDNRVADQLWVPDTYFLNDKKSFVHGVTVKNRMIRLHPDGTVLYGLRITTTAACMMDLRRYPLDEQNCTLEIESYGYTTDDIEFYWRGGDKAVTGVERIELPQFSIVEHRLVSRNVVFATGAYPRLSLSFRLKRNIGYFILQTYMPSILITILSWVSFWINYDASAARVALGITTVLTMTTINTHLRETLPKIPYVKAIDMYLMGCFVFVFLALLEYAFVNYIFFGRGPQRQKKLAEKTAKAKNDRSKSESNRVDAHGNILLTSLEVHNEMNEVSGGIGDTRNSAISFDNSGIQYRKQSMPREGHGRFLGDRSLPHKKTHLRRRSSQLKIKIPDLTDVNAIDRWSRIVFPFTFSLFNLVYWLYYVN
T1 sequence (P18507 40-475 Y468C): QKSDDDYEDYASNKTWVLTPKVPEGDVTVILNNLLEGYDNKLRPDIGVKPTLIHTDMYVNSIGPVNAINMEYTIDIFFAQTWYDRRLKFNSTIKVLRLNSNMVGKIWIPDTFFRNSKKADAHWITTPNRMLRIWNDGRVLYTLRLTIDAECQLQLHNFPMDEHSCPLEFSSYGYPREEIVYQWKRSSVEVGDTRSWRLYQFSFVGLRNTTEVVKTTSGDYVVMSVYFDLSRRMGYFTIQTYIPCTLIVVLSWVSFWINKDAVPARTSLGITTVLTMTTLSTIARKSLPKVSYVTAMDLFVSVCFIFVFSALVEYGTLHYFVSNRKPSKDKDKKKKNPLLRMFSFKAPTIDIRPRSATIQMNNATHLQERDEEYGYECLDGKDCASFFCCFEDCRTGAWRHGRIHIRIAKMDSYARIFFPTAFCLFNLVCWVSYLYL
Procedure: (§1) The coding sequences of human α1 (GABRA1, NM_000806), β3 (GABRB3, NM_021912), and γ2 (GABRG2, NM_198904.2) GABAAR subunits were subcloned into the pcDNA3.1 expression vectors (Invitrogen, Waltham, MA, USA).
(§2) HEK293T cells (ATCC, CRL-11268) were cultured at 37 °C in a humidified 5% CO2 incubator and maintained in Dulbecco’s modified Eagle’s medium (Invitrogen) supplemented with 10% fetal bovine serum (Life Technologies, Carlsbad, CA, USA), and 100 IU/mL of penicillin/streptomycin (Life Technologies). For the expression experiments, 4 × 10^5 cells were transfected using polyethylenimine (PEI) reagent (40 kD, Polysciences, Warrington, PA, USA) at a DNA: to transfection reagent ratio of 1:2.5 and harvested 36 h after transfection. To express WT and variant α1β3γ2 receptors, a total of 3 µg of α1, β3, and γ2 (WT or mutant) subunit cDNAs were transfected at a ratio of 1:1:1 into 60 mm culture dishes. For the mock-transfected condition, an empty pcDNA3.1 vector was added for a final cDNA transfection amount of 3 μg. For the electrophysiology experiments, 2.5 × 10^5 cells were plated in 100 mm culture dishes and transfected after 24 h with 3 μg of cDNA of each α1, β3, γ2 (wild-type or mutant) subunit, using X-tremeGENE HP DNA transfection Reagent (Roche Diagnostics, Basel, Switzerland), following the manufacturer’s protocol. Recordings were obtained forty-eight hours after transfection.
(§3) Whole-cell patch clamp recordings were conducted according to the manufacturer’s standard procedure for the SyncroPatch 384 [31]. Whole-cell voltage-clamp recordings were performed at room temperature on HEK293T cells 48 h after transfection with GABAAR subunits, using the SyncroPatch 384PE (Nanion Technologies, Munich, Germany). Cells, at a concentration of 400,000 cells/mL, were harvested in suspension in external solution containing 140 mM of NaCl, 2 mM of CaCl2, 4 mM of KCl, 1 mM of MgCl2, 5 mM of glucose, and 10 mM of HEPES (pH 7.4 with NaOH, 298 mOsm). The cells were loaded in a multi-hole (4 holes per well) 384-well Nanion patch clamp (NPC) chip with a thick borosilicate glass bottom and an average resistance pore size of […]. Built-in electrophysiological protocols were used, and the data were digitized using PatchControl 384 (Nanion Technologies) application. Using PatchControl 384, electrophysiological parameters, such as seal resistance, capacitance, and series resistance, were determined for each well after the application of a test pulse, and subsequently monitored over time. […] The currents were normalized to the maximal response of each well, and the concentration–response curves were calculated from single-point additions. The EC50 values for each variant or wild-type receptor were calculated across multiple wells for each experimental condition.

[2] = molecular target: T2, α1β3γ2 GABAA receptor, wild-type (WT) γ2 subunit (Homo sapiens, UniProt P14867+P28472); assay: Automated patch clamp of GABA-elicited currents (SyncroPatch 384PE), WT receptor; assay type: cell-based; conditions: mean
T2 construct: expressed in transfected cells; host or cells: HEK293T
Procedure: as §1, §2, §3

[3] = 1 mM GABA for 5 ms, HEK293T, -80 mV
[4] = 10–90% rise time, 1 mM GABA for 5 ms, HEK293T

T2 sequence (P18507 40-475 partner, one chain of several): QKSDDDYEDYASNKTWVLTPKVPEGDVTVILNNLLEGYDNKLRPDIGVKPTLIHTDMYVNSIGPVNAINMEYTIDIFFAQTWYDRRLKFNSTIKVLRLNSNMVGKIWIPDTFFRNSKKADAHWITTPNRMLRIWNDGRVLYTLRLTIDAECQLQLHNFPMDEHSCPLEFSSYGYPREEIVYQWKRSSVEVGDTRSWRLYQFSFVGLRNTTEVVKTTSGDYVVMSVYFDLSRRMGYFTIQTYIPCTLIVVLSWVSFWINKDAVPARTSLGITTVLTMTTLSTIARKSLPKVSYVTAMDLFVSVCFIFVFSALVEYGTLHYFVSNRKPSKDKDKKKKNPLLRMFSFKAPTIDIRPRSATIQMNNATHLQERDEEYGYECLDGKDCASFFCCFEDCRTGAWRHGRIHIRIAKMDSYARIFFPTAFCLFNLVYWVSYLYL

Deactivation [1, 3]: 433.9 ms
IMAX (maximal GABA-evoked peak current) ([1]; 1 mM GABA for 5 ms, HEK293T): 0.80 nA
IMAX variant/IMAX WT ([1]; 1 mM GABA): 40.06%
Rise Time [1, 4]: 26.52 ms
Deactivation [2, 3]: 199.9 ms
IMAX (maximal GABA-evoked peak current) ([2]; 1 mM GABA for 5 ms, HEK293T): 2.00 nA
IMAX variant/IMAX WT ([2]; 1 mM GABA): 100.00%
Rise Time [2, 4]: 13.67 ms
Compound: NCCCC(=O)O [GABA, γ-aminobutyric acid]
